For 6 molecules, Activity and IC50 results are on record in ChEMBL document CHEMBL1142560, “Furocoumarin glycosides from the leaves of Ficus ruficaulis Merr. var. antaoensis” (J Nat Prod, 2005).

Molecules are shown by their SMILES. pIC50: −log10 of the molar value.

One data set relates to PBMC. Nature of the data set: Antiproliferative activity against human PBMC upto 100 uM. It counts as cell-based.
For `O=c1ccc2c(O[C@@H]3O[C@H](CO)[C@@H](O)[C@H](O)[C@H]3O)c(O[C@@H]3O[C@H](CO)[C@@H](O)[C@H](O)[C@H]3O)c3occc3c2o1`, the Activity result is recorded as “Not Active”.

Take `O=c1ccc2c(O)c3ccoc3c(O[C@@H]3O[C@H](CO)[C@@H](O)[C@H](O)[C@H]3O)c2o1`: the Activity result is “Not Active”. In the case of `O=c1ccc2c(O[C@@H]3O[C@H](CO)[C@@H](O)[C@H](O)[C@H]3O)c3ccoc3c(O)c2o1`, the Activity result was “Not Active”.

As to `O=c1ccc2c(O)c(O[C@@H]3O[C@H](CO)[C@@H](O)[C@H](O)[C@H]3O)c3occc3c2o1`, the Activity result is given as “Not Active”.

The subject of a further data set is PBMC. The experiment in a line: Antiproliferative activity against human PBMC. It counts as cell-based.
Regarding `O=c1ccc2c(O[C@@H]3O[C@H](CO)[C@@H](O)[C@H](O)[C@H]3O)c(O)c3occc3c2o1`, the pIC50 (usually the IC50 on a negative log10 scale, so that one unit is a factor of ten) is 4.48. Still for that read-out and setting: for `C/C=C/C[C@@H](C)[C@@H](O)[C@H]1C(=O)N[C@@H](CC)C(=O)N(C)CC(=O)N(C)[C@@H](CC(C)C)C(=O)N[C@@H](C(C)C)C(=O)N(C)[C@@H](CC(C)C)C(=O)N[C@@H](C)C(=O)N[C@H](C)C(=O)N(C)[C@@H](CC(C)C)C(=O)N(C)[C@@H](CC(C)C)C(=O)N(C)[C@@H](C(C)C)C(=O)N1C` [CYCLOSPORINE] the value was 7.92.
